Reference: ChEMBL document CHEMBL1938277, “N-acylaminophenothiazines: neuroprotective agents displaying multifunctional activities for a potential treatment of Alzheimer's disease” (Eur J Med Chem, 2011)

Assays:
SH-SY5Y [1] = test: Neuroprotective activity against H2O2-induced cell death in human SH-SY5Y cells assessed as LDH release at 10 uM incubated for 24 hrs before H2O2 challenge measured after 24 hrs relative to control; type: functional
SH-SY5Y [2] = test: Neuroprotective activity against H2O2-induced cell death in human SH-SY5Y cells assessed as LDH release at 1 uM incubated for 24 hrs before H2O2 challenge measured after 24 hrs relative to control; type: functional
SH-SY5Y [3] = test: Neuroprotective activity against H2O2-induced cell death in human SH-SY5Y cells assessed as LDH release at 3 uM incubated for 24 hrs before H2O2 challenge measured after 24 hrs relative to control; type: functional
Acetylcholinesterase = biological target: T1, Acetylcholinesterase (Bos taurus, UniProt P23795); test: biochemical
T1 sequence (P23795 whole entry): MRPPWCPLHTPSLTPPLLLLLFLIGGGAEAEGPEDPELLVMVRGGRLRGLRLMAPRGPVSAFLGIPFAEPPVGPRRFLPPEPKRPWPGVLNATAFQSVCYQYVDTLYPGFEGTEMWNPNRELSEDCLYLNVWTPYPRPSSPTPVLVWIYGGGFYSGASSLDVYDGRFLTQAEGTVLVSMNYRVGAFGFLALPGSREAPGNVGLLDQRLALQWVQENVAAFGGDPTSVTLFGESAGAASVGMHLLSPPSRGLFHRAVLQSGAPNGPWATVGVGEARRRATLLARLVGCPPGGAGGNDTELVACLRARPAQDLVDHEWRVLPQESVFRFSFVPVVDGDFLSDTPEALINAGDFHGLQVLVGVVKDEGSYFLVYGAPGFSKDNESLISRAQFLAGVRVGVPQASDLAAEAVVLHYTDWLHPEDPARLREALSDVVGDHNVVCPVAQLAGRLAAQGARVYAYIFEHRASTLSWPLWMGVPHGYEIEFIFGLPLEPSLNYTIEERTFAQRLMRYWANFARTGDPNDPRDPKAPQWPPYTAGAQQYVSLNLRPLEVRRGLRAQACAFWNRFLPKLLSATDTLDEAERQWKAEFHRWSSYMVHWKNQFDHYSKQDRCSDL
Description: Inhibition of AChE in bovine erythrocytes using acetylthiocholine as substrate by Ellman method

in vitro = conditions: PAMPA
Description: Permeability of the compound by PAMPA assay

SH-SY5Y [4] = test: Neuroprotective activity against H2O2-induced cell death in human SH-SY5Y cells assessed as LDH release at 30 uM incubated for 24 hrs before H2O2 challenge measured after 24 hrs relative to control; type: functional
Cholinesterase = Cholinesterase (Equus caballus, UniProt P81908)
Description: Inhibition of BuChE in horse serum using butyrylthiocholine as substrate by Ellman method

SH-SY5Y [5] = test: Neuroprotective activity against okadaic acid-induced cell death in human SH-SY5Y cells assessed as LDH release at 0.3 uM treated 24 hrs before okadaic acid challenge measured after 24 hrs relative to control; type: functional
SH-SY5Y [6] = test: Inhibition of potassium chloride-induced cytosolic calcium level in human SH-SY5Y cells at 10 uM treated after 10 mins before potassium chloride challenge by Fluo-4/AM fluorescence assay; type: functional
SH-SY5Y [7] = test: Neuroprotective activity against rotenone/oligomycin A-induced cell death in human SH-SY5Y cells assessed as LDH release at 1 uM treated 24 hrs before rotenone/oligomycin A challenge measured after 24 hrs relative to control; type: functional
SH-SY5Y [8] = test: Neuroprotective activity against rotenone/oligomycin A-induced cell death in human SH-SY5Y cells assessed as LDH release at 0.3 uM after 24 hrs relative to control; type: functional
SH-SY5Y [9] = test: Neuroprotective activity against rotenone/oligomycin A-induced cell death in human SH-SY5Y cells assessed as LDH release at 0.1 uM treated 24 hrs before rotenone/oligomycin A challenge measured after 24 hrs relative to control; type: functional
SH-SY5Y [10] = test: Antioxidant activity in human SH-SY5Y cells assessed as sequestering of rotenone/oligomycin A-induced mitochondrial free radicals at 0.3 uM after 120 mins by DCFH-DA assay; type: functional
SH-SY5Y [11] = test: Neuroprotective activity against rotenone/oligomycin A-induced cell death in human SH-SY5Y cells assessed as LDH release at 0.3 uM treated 24 hrs before rotenone/oligomycin A challenge measured after 24 hrs relative to control; type: functional
SH-SY5Y [12] = test: Neuroprotective activity against rotenone/oligomycin A-induced cell death in human SH-SY5Y cells assessed as LDH release at 1 uM after 24 hrs relative to control; type: functional
SH-SY5Y [13] = test: Cytotoxicity against human SH-SY5Y cells; type: cell-based
SH-SY5Y [14] = test: Neuroprotective activity against rotenone/oligomycin A-induced cell death in human SH-SY5Y cells assessed as LDH release at 0.1 uM after 24 hrs relative to control; type: functional

Sequence of Cholinesterase (P81908 whole entry): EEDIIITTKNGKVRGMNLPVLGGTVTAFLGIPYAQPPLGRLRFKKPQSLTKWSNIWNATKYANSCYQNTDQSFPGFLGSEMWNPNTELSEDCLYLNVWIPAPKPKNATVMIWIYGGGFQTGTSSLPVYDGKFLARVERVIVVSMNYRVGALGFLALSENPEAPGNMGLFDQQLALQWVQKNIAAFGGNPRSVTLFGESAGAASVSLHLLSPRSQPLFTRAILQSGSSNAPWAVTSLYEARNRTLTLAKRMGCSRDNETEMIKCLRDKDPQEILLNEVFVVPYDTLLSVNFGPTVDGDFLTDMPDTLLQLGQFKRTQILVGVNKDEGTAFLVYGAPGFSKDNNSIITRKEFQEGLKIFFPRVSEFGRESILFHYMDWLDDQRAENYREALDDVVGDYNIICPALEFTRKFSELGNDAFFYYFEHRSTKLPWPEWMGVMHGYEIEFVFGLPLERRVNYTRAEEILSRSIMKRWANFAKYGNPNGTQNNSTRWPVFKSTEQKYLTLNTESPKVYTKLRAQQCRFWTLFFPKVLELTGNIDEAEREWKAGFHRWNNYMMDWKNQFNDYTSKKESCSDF

Structure (SMILES)	Activity (SH-SY5Y [1]) [%]	Activity (SH-SY5Y [2]) [%]	Activity (SH-SY5Y [3]) [%]	IC50 (Acetylcholinesterase) [µM]	Papp (in vitro) [×10⁻⁶ cm/s]	Activity (SH-SY5Y [4]) [%]	IC50 (Cholinesterase) [µM]	Activity (SH-SY5Y [5]) [%]	inhibition at 10 µM (SH-SY5Y [6]) [%]	Activity (SH-SY5Y [7]) [%]	Activity (SH-SY5Y [8]) [%]	Activity (SH-SY5Y [9]) [%]	Activity (SH-SY5Y [10]) [%]	Activity (SH-SY5Y [11]) [%]	Activity (SH-SY5Y [12]) [%]	Activity (SH-SY5Y [13])	Activity (SH-SY5Y [14]) [%]
O=C(CN1CCCCC1)NN1c2ccccc2Sc2cccc(Cl)c21	0	1.1	9.9	> 100	13.9	32.6	2.2	–	–	–	–	–	–	–	–	–	–
O=C(CN1CCCCC1)NN1c2ccccc2Sc2ccc(Cl)cc21	73.8	66.1	80.8	> 100	9.1	76.4	> 100	–	–	–	–	–	–	–	–	–	–
O=C(CN1CCCCC1)NN1c2ccccc2Sc2cc(Cl)ccc21	44.9	25.4	55.2	> 100	14.7	17.8	0.7	–	–	–	–	–	–	–	–	–	–
COc1ccc2c3c1O[C@H]1C[C@@H](O)C=C[C@@]31CCN(C)C2 [GALANTAMINE]	–	–	–	–	–	–	–	36	–	–	–	–	–	–	–	–	–
O=C(CN1CCCC1)NN1c2ccccc2Sc2ccccc21	18.9	13.1	35.6	> 100	10.5	23.3	0.8	–	–	–	–	–	–	–	–	–	–
CN1CCN(CCC(=O)NN2c3ccccc3Sc3cc(Cl)ccc32)CC1	68.6	43.9	56.6	> 100	13.8	72.8	0.9	–	–	–	–	–	–	–	–	–	–
O=C(CCN1CCCC1)NN1c2ccccc2Sc2cc(Cl)ccc21	29.4	34.4	57.2	> 100	16.4	49	3	–	–	–	–	–	–	–	–	–	–
CC(=O)NN1c2ccccc2Sc2cc(Cl)ccc21	37.2	40.3	52.2	> 100	9.8	21.2	> 100	–	–	–	–	–	–	–	–	–	–
O=C(CN1CCCC1)NN1c2ccccc2Sc2ccc(Cl)cc21	54.8	17.4	48.9	> 100	11.2	55.6	4.3	–	–	–	–	–	–	–	–	–	–
COC(=O)C1=C(C)NC(C)=C(C(=O)OC)C1c1ccccc1[N+](=O)[O-] [NIFEDIPINE]	–	–	–	–	–	–	–	–	45	–	–	–	–	–	–	–	–
COc1ccc2c(c1)Sc1ccccc1N2NC(=O)CCN1CCN(C)CC1	66.5	49.5	42.1	> 100	16.8	55.1	2	–	–	50.8	57.9	37.2	24.2	49.4	65.4	Non-toxic	66.3
